US7964607B2, “Pyrazolo[3,4-d]pyrimidine compounds” (Pfizer Inc., priority 2007, dated 2011)
Where two headings read alike, the source gives them in different places.

Target: T1, human recombinant PDE9 enzyme (Homo sapiens, UniProt O76083)
T1 construct: made in house; host or cells: SF-9 insect cells
Test: Phosphodiesterase 9 (PDE9) inhibitory activity, Scintillation Proximity (SPA) assay
Assay type: biochemical
Outline: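 Scintillation proximity read-out of [3H]cGMP hydrolysis after 30 min at room temperature, with enzyme addition starting the reaction. The enzyme was human recombinant PDE9 expressed in SF-9 cells, titrated to keep substrate turnover at 20% or less. Compound wells held 2% DMSO final, and background was defined with excess PDE inhibitor.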

[1] = human recombinant PDE9 from SF-9 cells, 50 nM [3H]cGMP, room temperature, 30 min, Examples 3-114, read-out: G5678A (U): IC50

T1 sequence (O76083 whole entry): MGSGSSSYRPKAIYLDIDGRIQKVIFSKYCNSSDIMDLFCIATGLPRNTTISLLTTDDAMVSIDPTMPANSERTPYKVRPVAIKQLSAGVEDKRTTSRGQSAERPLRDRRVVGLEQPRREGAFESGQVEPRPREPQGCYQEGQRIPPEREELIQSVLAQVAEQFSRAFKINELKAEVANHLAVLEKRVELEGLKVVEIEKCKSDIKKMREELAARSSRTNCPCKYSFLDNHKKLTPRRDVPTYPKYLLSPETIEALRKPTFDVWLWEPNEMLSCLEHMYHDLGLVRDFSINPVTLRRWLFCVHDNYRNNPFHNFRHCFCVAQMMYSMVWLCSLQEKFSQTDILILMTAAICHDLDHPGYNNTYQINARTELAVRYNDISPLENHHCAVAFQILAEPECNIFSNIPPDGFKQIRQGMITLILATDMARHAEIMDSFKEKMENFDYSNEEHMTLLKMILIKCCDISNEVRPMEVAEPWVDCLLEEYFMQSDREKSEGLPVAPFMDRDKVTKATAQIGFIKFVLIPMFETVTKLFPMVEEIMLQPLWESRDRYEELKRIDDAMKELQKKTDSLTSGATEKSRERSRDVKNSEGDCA

Row | Compound | IC50 [1] [nM] | IC50 [nM]
1 | Cc1nccc(CN2C[C@@H](C)[C@H](c3nc4c(cnn4C4CCCC4)c(=O)[nH]3)C2)n1 [Example 53, 1-cyclopentyl-6-{(3S,4S)-4-methyl-1-[(2-methylpyrimidin-4-yl)methyl]pyrrolidin-3-yl}-1,5-dihydro-4H-pyrazolo[3,4-d]pyrimidin-4-one] | 7.3 | 
2 | C[C@@H]1CN(Cc2ccnc(N(C)C)n2)C[C@H]1c1nc2c(cnn2C2CCCC2)c(=O)[nH]1 [Example 54, 1-cyclopentyl-6-[(3S,4S)-1-{[2-(dimethylamino)pyrimidin-4-yl]methyl}-4-methylpyrrolidin-3-yl]-1,5-dihydro-4H-pyrazolo[3,4-d]pyrimidin-4-one] | 14.7 | 
3 | C[C@@H]1CN(Cc2ccccc2)C[C@H]1c1nc2c(cnn2C2CCOCC2)c(=O)[nH]1 [Example 61, 6-[(3S,4S)-1-benzyl-4-methylpyrrolidin-3-yl]-1-(tetrahydro-2H-pyran-4-yl)-1,5-dihydro-4H-pyrazolo[3,4-d]pyrimidin-4-one] |  | 7.35
4 | CC(C)n1ncc2c(=O)[nH]c([C@@H]3CN(Cc4ccnc5cccnc45)C[C@H]3C)nc21 [Example 65, 1-isopropyl-6-[(3S,4S)-4-methyl-1-(1,5-naphthyridin-4-ylmethyl)pyrrolidin-3-yl]-1,5-dihydro-4H-pyrazolo[3,4-d]pyrimidin-4-one] | 17.1 | 
5 | CC(C)n1ncc2c(=O)[nH]c([C@@H]3CN(Cc4ccnc5ncccc45)C[C@H]3C)nc21 [Example 66] | 18.1 | 
6 | CC(C)n1ncc2c(=O)[nH]c([C@@H]3CN(Cc4ccnc5ccccc45)C[C@H]3C)nc21 [Example 67] | 9.74 | 
7 | CC(C)n1ncc2c(=O)[nH]c([C@@H]3CN(Cc4ccnc5nccnc45)C[C@H]3C)nc21 [Example 68, 1-isopropyl-6-[(3S,4S)-4-methyl-1-(pyrido[2,3-b]pyrazin-8-ylmethyl)pyrrolidin-3-yl]-1,5-dihydro-4H-pyrazolo[3,4-d]pyrimidin-4-one] | 36.7 | 
8 | Cc1ncc(CN2C[C@@H](C)[C@H](c3nc4c(cnn4C4CCOCC4)c(=O)[nH]3)C2)cn1 [Example 73, 6-{(3S,4S)-4-methyl-1-[(2-methylpyrimidin-5-yl)methyl]pyrrolidin-3-yl}-1-(tetrahydro-2H-pyran-4-yl)-1,5-dihydro-4H-pyrazolo[3,4-d]pyrimidin-4-one] |  | 6.01
9 | Cc1cnc(CN2C[C@@H](C)[C@H](c3nc4c(cnn4C4CCOCC4)c(=O)[nH]3)C2)cn1 [Example 75, 6-{(3S,4S)-4-methyl-1-[(5-methylpyrazin-2-yl)methyl]pyrrolidin-3-yl}-1-(tetrahydro-2H-pyran-4-yl)-1,5-dihydro-4H-pyrazolo[3,4-d]pyrimidin-4-one] |  | 5.46
10 | COc1ccc(CN2C[C@@H](C)[C@H](c3nc4c(cnn4C4CCOCC4)c(=O)[nH]3)C2)cn1 [Example 76, 6-{(3S,4S)-1-[(6-methoxypyridin-3-yl)methyl]-4-methylpyrrolidin-3-yl}-1-(tetrahydro-2H-pyran-4-yl)-1,5-dihydro-4H-pyrazolo[3,4-d]pyrimidin-4-one] | 3.5 | 
11 | C[C@@H]1CN(Cc2cnc3ccccc3c2)C[C@H]1c1nc2c(cnn2C2CCOCC2)c(=O)[nH]1 [Example 77, 6-[(3S,4S)-4-methyl-1-(quinolin-3-ylmethyl)pyrrolidin-3-yl]-1-(tetrahydro-2H-pyran-4-yl)-1,5-dihydro-4H-pyrazolo[3,4-d]pyrimidin-4-one] | 1.24 | 
12 | Cc1nccc(CN2C[C@@H](C)[C@H](c3nc4c(cnn4C4CCOCC4)c(=O)[nH]3)C2)n1 [Example 78, 6-{(3S,4S)-4-methyl-1-[(2-methylpyrimidin-4-yl)methyl]pyrrolidin-3-yl}-1-(tetrahydro-2H-pyran-4-yl)-1,5-dihydro-4H-pyrazolo[3,4-d]pyrimidin-4-one] | 4.35 | 
13 | Cc1ccc(CN2C[C@@H](C)[C@H](c3nc4c(cnn4C4CCOCC4)c(=O)[nH]3)C2)cn1 [Example 79, 6-{(3S,4S)-4-methyl-1-[(6-methylpyridin-3-yl)methyl]pyrrolidin-3-yl}-1-(tetrahydro-2H-pyran-4-yl)-1,5-dihydro-4H-pyrazolo[3,4-d]pyrimidin-4-one] |  | 3.72
14 | C[C@@H]1CN(Cc2ccc(C(F)(F)F)nc2)C[C@H]1c1nc2c(cnn2C2CCOCC2)c(=O)[nH]1 [Example 80, 6-[(3S,4S)-4-methyl-1-{[6-(trifluoromethyl)pyridin-3-yl]methyl}pyrrolidin-3-yl]-1-(tetrahydro-2H-pyran-4-yl)-1,5-dihydro-4H-pyrazolo[3,4-d]pyrimidin-4-one] | 3.72 | 
15 | C[C@@H]1CN(Cc2nc3cnccc3n2C)C[C@H]1c1nc2c(cnn2C2CCOCC2)c(=O)[nH]1 [Example 81, 6-{(3S,4S)-4-methyl-1-[(1-methyl-1H-imidazo[4,5-c]pyridin-2-yl)methyl]pyrrolidin-3-yl}-1-(tetrahydro-2H-pyran-4-yl)-1,5-dihydro-4H-pyrazolo[3,4-d]pyrimidin-4-one] | 2.92 | 
16 | Cc1cc(CN2C[C@@H](C)[C@H](c3nc4c(cnn4C4CCOCC4)c(=O)[nH]3)C2)n(C)n1 [Example 82, 6-{(3S,4S)-1-[(1,3-dimethyl-1H-pyrazolo-5-yl)methyl]-4-methylpyrrolidin-3-yl}-1-(tetrahydro-2H-pyran-4-yl)-1,5-dihydro-4H-pyrazolo[3,4-d]pyrimidin-4-one] | 5.18 | 
17 | C[C@@H]1CN(Cc2ccc3nsnc3c2)C[C@H]1c1nc2c(cnn2C2CCOCC2)c(=O)[nH]1 [Example 84, 6-[(3S,4S)-1-(2,1,3-benzothiadiazol-5-ylmethyl)-4-methylpyrrolidin-3-yl]-1-(tetrahydro-2H-pyran-4-yl)-1,5-dihydro-4H-pyrazolo[3,4-d]pyrimidin-4-one] | 1.87 | 
18 | C[C@@H]1CN(Cc2cnc3ccccc3n2)C[C@H]1c1nc2c(cnn2C2CCOCC2)c(=O)[nH]1 [Example 85] | 0.903 | 
19 | C[C@@H]1CN(Cc2ccnc3ccccc23)C[C@H]1c1nc2c(cnn2C2CCOCC2)c(=O)[nH]1 [Example 86, 6-[(3S,4S)-4-methyl-1-(quinolin-4-ylmethyl)pyrrolidin-3-yl]-1-(tetrahydro-2H-pyran-4-yl)-1,5-dihydro-4H-pyrazolo[3,4-d]pyrimidin-4-one] | 1.44 | 
20 | Cc1nn(C2CCOCC2)c2nc([C@@H]3CN(Cc4ccccc4)C[C@H]3C)[nH]c(=O)c12 [Example 88, 6-[(3S,4S)-1-benzyl-4-methylpyrrolidin-3-yl]-3-methyl-1-(tetrahydro-2H-pyran-4-yl)-1,5-dihydro-4H-pyrazolo[3,4-d]pyrimidin-4-one] | 17.9 | 
21 | C[C@@H]1CN(Cc2cccc(F)c2)C[C@H]1c1nc2c(cnn2C2CCOCC2)c(=O)[nH]1 [Example 89, 6-[(3S,4S)-1-(3-fluorobenzyl)-4-methylpyrrolidin-3-yl]-1-(tetrahydro-2H-pyran-4-yl)-1,5-dihydro-4H-pyrazolo[3,4-d]pyrimidin-4-one] |  | 1.7
22 | C[C@@H]1CN(Cc2cc(F)cc(F)c2)C[C@H]1c1nc2c(cnn2C2CCOCC2)c(=O)[nH]1 [Example 90, 6-[(3S,4S)-1-(3,5-difluorobenzyl)-4-methylpyrrolidin-3-yl]-1-(tetrahydro-2H-pyran-4-yl)-1,5-dihydro-4H-pyrazolo[3,4-d]pyrimidin-4-one] | 1.41 | 
23 | C[C@@H]1CN(Cc2ccc(C(F)(F)F)cc2)C[C@H]1c1nc2c(cnn2C2CCOCC2)c(=O)[nH]1 [Example 91, 6-{(3S,4S)-4-methyl-1-[4-(trifluoromethyl)benzyl]pyrrolidin-3-yl}-1-(tetrahydro-2H-pyran-4-yl)-1,5-dihydro-4H-pyrazolo[3,4-d]pyrimidin-4-one] | 6.69 | 
